Assay results published in PubChem BioAssay (NCI).
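1) Cells in 96-well plates. 2) Compound, 48 h, 5 concentrations. 3) Linear interpolation between surrounding doses. 4) Unreached endpoint = highest concentration. Abbreviation: GI50, concentration required for 50% inhibition of growth. The concentration for full growth arrest is given as TGI.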

Legend:
Assay in all cases: DTP human tumour cell line panel, 48 h
[1] = test system: OVCAR-4 ovarian
[2] = test system: OVCAR-5 ovarian
[3] = test system: IGROV1 ovarian
[4] = test system: A498 renal
[5] = test system: ACHN renal
[6] = test system: NCI-H460 lung
[7] = test system: NCI-H522 lung
[8] = test system: 786-0 renal
[9] = test system: MOLT-4 leukemia
[10] = test system: SNB-78 CNS

SMILES	GI50 [1] [µM]	TGI [1] [µM]	GI50 [2] [µM]	TGI [2] [µM]	GI50 [3] [µM]	TGI [3] [µM]	GI50 [4] [µM]	TGI [4] [µM]	GI50 [5] [µM]	TGI [5] [µM]	GI50 [6] [µM]	TGI [6] [µM]	GI50 [7] [µM]	TGI [7] [µM]	GI50 [8] [µM]	TGI [8] [µM]	GI50 [9] [µM]	TGI [9] [µM]	TGI [10] [µM]
COc1cc2c(cc1OCCCCn1c(-c3cccs3)nc3ccccc31)N=C[C@@H]1CCCN1C2=O	1.61	4.67	3.27	9.13	0.754	2.86	1.68	4.76	2.81	7.73	1.55	4.38	1.04	3.14	1.71	5.9	3.79	> 100	
Cc1cc(C(O)(c2ccc(Nc3ccccc3)cc2)c2ccc(Nc3ccc(S(=O)(=O)O)cc3)cc2)ccc1N (stereo not given)	1.31	3.39	1.4	3	1.52	3.4	1.58	3.51	1.29	2.7	1.32	2.78	1.26	4.44	1.02	2.27	0.445	> 100	
N#Cc1c(-c2ccccc2)cc(-c2cccs2)c(C#N)c1N		> 100						> 100		> 100		> 100		> 100		> 100		> 100	> 100
CS(=N)(=O)CCC(N)P(=O)(O)O (stereo not given)		> 100		> 100		> 100		> 100		> 100		> 100		> 100		> 100		> 100	
CC(=O)N(CCN1C(=O)c2ccccc2C1=O)CCN1C(=O)c2ccccc2C1=O		> 100						> 100		> 100		> 100		> 100		> 100		> 100	> 100
CCCOc1ccc(/C=N/Nc2cc(C)nc3ccc(Cl)cc23)cc1	1.71	3.2	1.87	3.28	1.92	3.63	1.72	3.16	1.74	3.12	2.04	4.03	1.75	3.42	1.86	3.42	1.81	3.77	
O=C(Nc1ccc(I)cc1)c1cccc([N+](=O)[O-])c1O	2.61	25	18.1	> 100	6.15	> 100	1.65	6.55	4.16	> 100	3.86	> 100	2.61	31.1	3.53	24.2	3.38	92.3	
CCOC(=O)/C(=C/c1ccccc1Br)P(=O)(OCC)OCC		4.2		5.92		10.1		8.61		6		10.7		2.32		2.66		5.35	
CC(=O)Oc1c(Br)ccc2cc(C(Br)Br)c(C(=O)c3ccccc3)nc12		21.7		31.1		76.5				44.3		44.4		14.8		46.9		46.2	71.4
